According to publication PMC8518114, “Safety, tolerability and pharmacokinetics of emodepside, a potential novel treatment for onchocerciasis (river blindness), in healthy male subjects” (British Journal of Clinical Pharmacology, 2021):

Assays:
[1] = test system: healthy male subjects; experiment: Safety: treatment-emergent adverse events, SAD study; type: in vivo, human
Protocol: Safety was assessed by monitoring adverse events (AEs) throughout the studies that were coded using the standard Medical Dictionary for Regulatory Activities (MedDRA) dictionary (versions 19.0 [SAD part 1], 20.0 [SAD part 2] and 21.1 [MAD]). Other safety monitoring included 12‐lead electrocardiography recordings, measurement of vital signs (systolic and diastolic blood pressure and heart rate), physical and neurological (Hamilton depression rating scale[17] and Beck depression inventory‐II fastscreen[18] [SAD only], mental status examination, cranial nerves assessment and motor system examination, sensation to light touch, coordination/cerebellar function assessment, Romberg's test, gait test, daytime sleepiness assessment [SAD and MAD studies]) examinations, haematology, biochemistry and urinalysis. To minimise risks in the SAD and MAD studies, subjects were dosed sequentially using sentinels in each cohort (1 IP, 1 placebo) as per European Medicines Agency guidelines.[19] If the previous dose was well tolerated, with no safety concerns, dose escalation was decided by the Safety Review Group after reviewing safety and PK data from all available cohorts. Moreover, treatment with the highest dose in the SAD study was repeated (cohort 10) for regular ophthalmological evaluations (assessments available as supplementary information) to better characterise visual AEs observed in the SAD study. Regular ophthalmological assessments were also performed in the MAD study.

[2] = rat, in vivo; cited from earlier work
From the text: This is in line with nonclinical PK studies in rats and dogs, in which emodepside volume ...

[3] = SAD Part 2, 10 mg LSF (fed) n = 6
[4] = SAD Part 2, 40 mg LSF (fasting) n = 6

## CC(C)C[C@H]1C(=O)O[C@H](Cc2ccc(N3CCOCC3)cc2)C(=O)N(C)[C@@H](CC(C)C)C(=O)O[C@H](C)C(=O)N(C)[C@@H](CC(C)C)C(=O)O[C@H](Cc2ccc(N3CCOCC3)cc2)C(=O)N(C)[C@@H](CC(C)C)C(=O)O[C@H](C)C(=O)N1C [emodepside]
[1]; SAD Part 1, 0.1 mg LSF n = 1
  Any TEAE: 1 (100) n (%)
  TEAE: Eye disorders: 0 n (%)
  TEAE: Gastrointestinal disorders: 0 n (%)
  TEAE: General disorders and administration site disorders: 0 n (%)
  TEAE: Infections and infestations: 1 (100) n (%)
  TEAE: Injury, poisoning and procedural complications: 0 n (%)
  TEAE: Musculoskeletal and connective tissue disorders: 0 n (%)
  TEAE: Nervous system disorders: 0 n (%)
  TEAE: Psychiatric disorders: 0 n (%)
  TEAE: Respiratory, thoracic and mediastinal disorders: 0 n (%)
[1]; SAD Part 1, 1 mg LSF n = 5
  Any TEAE: 3 (60.0) n (%)
  TEAE: Eye disorders: 0 n (%)
  TEAE: Gastrointestinal disorders: 0 n (%)
  TEAE: General disorders and administration site disorders: 0 n (%)
  TEAE: Infections and infestations: 0 n (%)
  TEAE: Injury, poisoning and procedural complications: 0 n (%)
  TEAE: Musculoskeletal and connective tissue disorders: 1 (20.0) n (%)
  TEAE: Nervous system disorders: 2 (40.0) n (%)
  TEAE: Psychiatric disorders: 0 n (%)
  TEAE: Respiratory, thoracic and mediastinal disorders: 0 n (%)
[1]; SAD Part 1, 2.5 mg LSF n = 6
  Any TEAE: 0 n (%)
  TEAE: Eye disorders: 0 n (%)
  TEAE: Gastrointestinal disorders: 0 n (%)
  TEAE: General disorders and administration site disorders: 0 n (%)
  TEAE: Infections and infestations: 0 n (%)
  TEAE: Injury, poisoning and procedural complications: 0 n (%)
  TEAE: Musculoskeletal and connective tissue disorders: 0 n (%)
  TEAE: Nervous system disorders: 0 n (%)
  TEAE: Psychiatric disorders: 0 n (%)
  TEAE: Respiratory, thoracic and mediastinal disorders: 0 n (%)
[1]; SAD Part 1, 5 mg IRT n = 5
  Any TEAE: 3 (60.0) n (%)
  TEAE: Eye disorders: 1 (20.0) n (%)
  TEAE: Gastrointestinal disorders: 0 n (%)
  TEAE: General disorders and administration site disorders: 0 n (%)
  TEAE: Infections and infestations: 0 n (%)
  TEAE: Injury, poisoning and procedural complications: 0 n (%)
  TEAE: Musculoskeletal and connective tissue disorders: 1 (20.0) n (%)
  TEAE: Nervous system disorders: 1 (20.0) n (%)
  TEAE: Psychiatric disorders: 1 (20.0) n (%)
  TEAE: Respiratory, thoracic and mediastinal disorders: 0 n (%)
[1]; SAD Part 1, 5 mg LSF n = 6
  Any TEAE: 3 (50.0) n (%)
  TEAE: Eye disorders: 0 n (%)
  TEAE: Gastrointestinal disorders: 1 (16.7) n (%)
  TEAE: General disorders and administration site disorders: 2 (33.3) n (%)
  TEAE: Infections and infestations: 1 (16.7) n (%)
  TEAE: Injury, poisoning and procedural complications: 0 n (%)
  TEAE: Musculoskeletal and connective tissue disorders: 1 (16.7) n (%)
  TEAE: Nervous system disorders: 1 (16.7) n (%)
  TEAE: Psychiatric disorders: 0 n (%)
  TEAE: Respiratory, thoracic and mediastinal disorders: 0 n (%)
[1]; SAD Part 1, 10 mg LSF n = 6
  Any TEAE: 5 (83.3) n (%)
  TEAE: Eye disorders: 2 (33.3) n (%)
  TEAE: Gastrointestinal disorders: 0 n (%)
  TEAE: General disorders and administration site disorders: 0 n (%)
  TEAE: Infections and infestations: 1 (16.7) n (%)
  TEAE: Injury, poisoning and procedural complications: 0 n (%)
  TEAE: Musculoskeletal and connective tissue disorders: 0 n (%)
  TEAE: Nervous system disorders: 1 (16.7) n (%)
  TEAE: Psychiatric disorders: 0 n (%)
  TEAE: Respiratory, thoracic and mediastinal disorders: 1 (16.7) n (%)
[1]; SAD Part 1, 20 mg IRT n = 6
  Any TEAE: 2 (33.3) n (%)
  TEAE: Eye disorders: 0 n (%)
  TEAE: Gastrointestinal disorders: 1 (16.7) n (%)
  TEAE: General disorders and administration site disorders: 0 n (%)
  TEAE: Infections and infestations: 0 n (%)
  TEAE: Injury, poisoning and procedural complications: 0 n (%)
  TEAE: Musculoskeletal and connective tissue disorders: 1 (16.7) n (%)
  TEAE: Nervous system disorders: 1 (16.7) n (%)
  TEAE: Psychiatric disorders: 0 n (%)
  TEAE: Respiratory, thoracic and mediastinal disorders: 1 (16.7) n (%)
[1]; SAD Part 1, 20 mg LSF n = 6
  Any TEAE: 3 (50.0) n (%)
  TEAE: Eye disorders: 1 (16.7) n (%)
  TEAE: Gastrointestinal disorders: 0 n (%)
  TEAE: General disorders and administration site disorders: 0 n (%)
  TEAE: Infections and infestations: 1 (16.7) n (%)
  TEAE: Injury, poisoning and procedural complications: 1 (16.7) n (%)
  TEAE: Musculoskeletal and connective tissue disorders: 0 n (%)
  TEAE: Nervous system disorders: 1 (16.7) n (%)
  TEAE: Psychiatric disorders: 0 n (%)
  TEAE: Respiratory, thoracic and mediastinal disorders: 1 (16.7) n (%)
[1]; SAD Part 1, 40 mg LSF n = 6
  Any TEAE: 5 (83.3) n (%)
  TEAE: Eye disorders: 5 (83.3) n (%)
  TEAE: Gastrointestinal disorders: 0 n (%)
  TEAE: General disorders and administration site disorders: 0 n (%)
  TEAE: Infections and infestations: 1 (16.7) n (%)
  TEAE: Injury, poisoning and procedural complications: 0 n (%)
  TEAE: Musculoskeletal and connective tissue disorders: 1 (16.7) n (%)
  TEAE: Nervous system disorders: 3 (50.0) n (%)
  TEAE: Psychiatric disorders: 0 n (%)
  TEAE: Respiratory, thoracic and mediastinal disorders: 0 n (%)
[1]; [3]
  Any TEAE: 3 (50.0) n (%)
  TEAE: Eye disorders: 0 n (%)
  TEAE: Gastrointestinal disorders: 0 n (%)
  TEAE: General disorders and administration site disorders: 0 n (%)
  TEAE: Infections and infestations: 0 n (%)
  TEAE: Injury, poisoning and procedural complications: 0 n (%)
  TEAE: Musculoskeletal and connective tissue disorders: 0 n (%)
  TEAE: Nervous system disorders: 2 (33.3) n (%)
  TEAE: Psychiatric disorders: 0 n (%)
  TEAE: Respiratory, thoracic and mediastinal disorders: 1 (16.7) n (%)
[1]; [4]
  Any TEAE: 5 (83.3) n (%)
  TEAE: Eye disorders: 5 (83.3) n (%)
  TEAE: Gastrointestinal disorders: 3 (50.0) n (%)
  TEAE: General disorders and administration site disorders: 3 (50.0) n (%)
  TEAE: Infections and infestations: 0 n (%)
  TEAE: Injury, poisoning and procedural complications: 0 n (%)
  TEAE: Musculoskeletal and connective tissue disorders: 1 (16.7) n (%)
  TEAE: Nervous system disorders: 4 (66.7) n (%)
  TEAE: Psychiatric disorders: 1 (16.7) n (%)
  TEAE: Respiratory, thoracic and mediastinal disorders: 1 (16.7) n (%)
[1]; SAD, 10 mg LSF in the fasting state
  Drug-related visual disorder TEAEs: 2 subjects
[1]; SAD, 40 mg LSF in the fasting state
  Drug-related visual disorder TEAEs: 5 subjects
[1]; SAD, all mild
  Time to spontaneous resolution of drug-related visual disorder TEAEs: ≤ 24 h
[1]; in vivo
  Onset of drug-related visual disorder TEAEs post-dose: 20 to 240 min
  Onset of drug-related visual disorder TEAEs, most often: 1 to 2.5 h
[2]
  Radioactivity levels in tissues vs blood, radio-labelled emodepside: higher in most tissues than in the blood
